These results are taken from article PMC12040169 (PLOS Biology, 2025).

The nature of one series: in vitro. Conditions: human, hela cells, % viability.
As usually defined, the viability is a read-out of living cells in per cent, often relative to untreated cells. For `Cc1nn(C)cc1CN1CCN(C(=S)NCCc2ccccc2)CC1` [CBK267069], the viability at 28.5 h, 10 µM came out at 98.4%. On to `Cc1cc(NS(=O)(=O)c2ccc(NC(=O)c3ccc(C(C)(C)C)c(Br)c3)cc2)no1` [CBK265629], for which the viability at 28.5 h, 10 µM is 119%.

For `CCN(CC)C(=O)[C@@H]1CCCN1c1nc(O)cc(C(F)(F)F)n1` [CBK002867], the viability at 28.5 h, 10 µM came out at 92%. Consider `Cc1cc(C)c(CNC(=O)N(C)C(C)c2ccncn2)cn1` (centres unmarked) [CBK307192], for which the viability at 28.5 h, 10 µM is 93.4%.

As for `COc1cnc(C(=O)NCc2ccccc2Cl)cc1O` [CBK287993], the viability at 28.5 h, 10 µM came out at 84.6%. Take `Cc1ccccc1NC(=O)COc1ccc(S(=O)(=O)N2CCCC2)cc1Cl` [CBK268938]: the viability at 28.5 h, 10 µM was determined as 95.2%.

Regarding `COc1cc2c(cc1OC)C1(CCN(C(=O)Nc3ccc(F)cc3F)CC1)NC(=O)C2` [CBK047264], the viability at 28.5 h, 10 µM was determined as 84.8%. As to `O=C(O)COc1ccccc1/C=N/n1c(S)nnc1-c1ccncc1` [CBK265253], the viability at 28.5 h, 10 µM was 111%.

Take `O=C(Nc1ccc(N2CCNCC2)nc1)c1ccccc1` [CBK028277T]: the viability at 28.5 h, 10 µM was 114%. As for `CCOc1cc(-c2noc(CCC(=O)N3CCN(C)CC3)n2)ccc1OC` [CBK269513], the viability at 28.5 h, 10 µM worked out at 105%. Regarding `COCc1ccc(Nc2ccccc2S(=O)(=O)c2ccccc2)cc1OCC1CCN(C(=O)OC(C)(C)C)CC1` [CBK175577], the viability at 28.5 h, 10 µM is 94.6%. In the case of `COc1ccc(C2(C(=O)NCCCN3CCN(C)CC3)CC2)cc1` [CBK149822], the viability at 28.5 h, 10 µM was determined as 101%. Turning to `Cc1cc(C(=O)CSc2nnc(C3CC3)[nH]2)c(C)n1-c1cccc(C(F)(F)F)c1` [CBK295310], the viability at 28.5 h, 10 µM came to 80.6%. Regarding `CC1=NN(c2nc(-c3ccc(Br)cc3)cs2)C(=O)C1/N=N/c1ccc(C(=O)O)cc1` (centres unmarked) [CBK262435], the viability at 28.5 h, 10 µM worked out at 86.7%. Still for that read-out and setting: next, `Oc1ccc(-c2n[nH]c(C(F)(F)F)c2Oc2ccc(F)cc2)c(O)c1` [CBK264440]: 89.5%; `CCOC(=O)CN1CCN(S(=O)(=O)c2ccc(F)c(Cl)c2)CC1` [CBK043782]: 89.3%; `COc1cc(NS(=O)(=O)c2ccc(NC(=O)c3cccnc3)cc2)ncn1` [CBK268156]: 93%. Same read-out and setting: next, `COc1ccc(Br)cc1CNCCCN1CCOCC1` [CBK278208C]: 102%; `COc1ccc(OC[C@@H]2C3CCC(C3)N2C(=O)C2CC2)cc1` (some centres unmarked) [CBK284602]: 94.7%. As to `Cc1cccnc1NC(=S)NCc1ccco1` [CBK268907], the viability at 28.5 h, 10 µM was found to be 103%. As to `O=C(C1CCCCC1)N1CCCC(c2cc3cccnc3[nH]2)C1` (centres unmarked) [CBK284938], the viability at 28.5 h, 10 µM worked out at 98.4%. As for `O=C(O)CCSCC(=O)c1ccc(NS(=O)(=O)c2ccccc2)cc1` [CBK300504], the viability at 28.5 h, 10 µM was found to be 97.5%. `N/C(=N\OC(=O)CCCc1ccccc1)c1ccc(Cl)cc1` [CBK264454]: the viability at 28.5 h, 10 µM amounted to 107%. For the compound `CCC(C)c1csc(C2CN3CCCC3CO2)n1` (centres unmarked) [CBK304805], the viability at 28.5 h, 10 µM was determined as 81.5%. Take `O=C(Nc1ccc2[nH]c(C3CCCCC3)nc2c1)C1CCCCC1` [CBK020680]: the viability at 28.5 h, 10 µM was determined as 87.7%. As to `O=C(NC1CCCc2c1cnn2-c1ccc(F)cc1)C1CC1` (centres unmarked) [CBK283928], the viability at 28.5 h, 10 µM was 111%. The same measure, in the same setting: next, `CN(C)CCN(Cc1ccccc1)C(=O)NCc1c(Cl)cccc1Cl` [CBK155107]: 97.3%; `Cc1csc(C(C)NC(=O)c2cccnc2NCc2ccc3c(c2)OCO3)n1` (centres unmarked) [CBK153425]: 108%; `CN(C)CCNC(=O)Cn1c(-c2cccs2)cc2cccnc21` [CBK282555]: 92.6%. Same read-out and setting: to `O=C(COc1cccc2c1CCNC2=O)Nc1ccccc1` [CBK287730] belongs 89%; to `O=C(/C=N/O)Nc1cc(C(F)(F)F)ccc1Cl` [CBK288405], 107%.

Staying with this series, now noted: human, hela cells, % viability, bulk resorufin, single well.
For the compound `CC(C)(C)OC(=O)N1CCC2(CC1)OCc1cc(-c3ccc(S(C)(=O)=O)nc3)ccc1O2` [CBK159619], the viability at 28.5 h, 10 µM came out at 83.6%.
